Numbers after ± are expanded uncertainties.
Columns and labels:
[1] = Molar enthalpy of transition or fusion; conditions: Crystal
[2] = Crystal
[3] = molar heat capacity at constant pressure; conditions: 101.33 kPa

Structure (SMILES) | Molar enthalpy of transition or fusion [1] [kcal/mol] | Triple point temperature [2] [K] | molar heat capacity at constant pressure ([3]; 5 K, Crystal) [J/K/mol] | molar heat capacity at constant pressure ([3]; 10 K, Crystal) [J/K/mol] | molar heat capacity at constant pressure ([3]; 20 K, Crystal) [J/K/mol] | molar heat capacity at constant pressure ([3]; 30 K, Crystal) [J/K/mol] | molar heat capacity at constant pressure ([3]; 40 K, Crystal) [J/K/mol] | molar heat capacity at constant pressure ([3]; 50 K, Crystal) [J/K/mol] | molar heat capacity at constant pressure ([3]; 60 K, Crystal) [J/K/mol] | molar heat capacity at constant pressure ([3]; 70 K, Crystal) [J/K/mol] | molar heat capacity at constant pressure ([3]; 80 K, Crystal) [J/K/mol] | molar heat capacity at constant pressure ([3]; 90 K, Crystal) [J/K/mol] | molar heat capacity at constant pressure ([3]; 100 K, Crystal) [J/K/mol] | molar heat capacity at constant pressure ([3]; 110 K, Crystal) [J/K/mol] | molar heat capacity at constant pressure ([3]; 120 K, Crystal) [J/K/mol] | molar heat capacity at constant pressure ([3]; 130 K, Crystal) [J/K/mol] | molar heat capacity at constant pressure ([3]; 140 K, Crystal) [J/K/mol] | molar heat capacity at constant pressure ([3]; 150 K, Crystal) [J/K/mol] | molar heat capacity at constant pressure ([3]; 160 K, Crystal) [J/K/mol] | molar heat capacity at constant pressure ([3]; 170 K, Crystal) [J/K/mol] | further results
CCCCCCCCCCCCCCCCCCC(=O)OC [methyl nonadecanoate] | 16.95 ± 0.129 | 311.49 ± 0.16 | 0.69 ± 0.04 | 5.1 ± 0.11 | 26.27 ± 0.32 | 55.13 ± 0.31 | 87.37 ± 0.43 | 117.8 ± 0.55 | 143.77 ± 0.66 | 168.98 ± 0.76 | 190.79 ± 0.84 | 210.18 ± 0.82 | 228.66 ± 0.86 | 244.31 ± 0.89 | 259.07 ± 0.92 | 273.22 ± 0.95 | 286.84 ± 0.97 | 300.17 ± 1 | 313.53 ± 1 | 327.31 ± 1.1 | molar heat capacity at constant pressure ([3]; 180 K, Crystal): 339.52 ± 1.1 J/K/mol; molar heat capacity at constant pressure ([3]; 190 K, Crystal): 353.2 ± 1.1 J/K/mol; molar heat capacity at constant pressure ([3]; 200 K, Crystal): 367.35 ± 1.1 J/K/mol; molar heat capacity at constant pressure ([3]; 210 K, Crystal): 380.94 ± 1.2 J/K/mol; molar heat capacity at constant pressure ([3]; 220 K, Crystal): 397.52 ± 1.2 J/K/mol; molar heat capacity at constant pressure ([3]; 230 K, Crystal): 413.93 ± 1.2 J/K/mol; molar heat capacity at constant pressure ([3]; 240 K, Crystal): 432.32 ± 1.3 J/K/mol; molar heat capacity at constant pressure ([3]; 250 K, Crystal): 450.65 ± 1.3 J/K/mol; molar heat capacity at constant pressure ([3]; 260 K, Crystal): 469.65 ± 1.3 J/K/mol; molar heat capacity at constant pressure ([3]; 270 K, Crystal): 491.94 ± 1.4 J/K/mol; molar heat capacity at constant pressure ([3]; 280 K, Crystal): 518.01 ± 1.4 J/K/mol; molar heat capacity at constant pressure ([3]; 290 K, Crystal): 549.43 ± 1.5 J/K/mol; molar heat capacity at constant pressure ([3]; 300 K, Crystal): 586.63 ± 1.6 J/K/mol; molar heat capacity at constant pressure ([3]; 320 K, Liquid): 691.61 ± 1.8 J/K/mol; molar heat capacity at constant pressure ([3]; 330 K, Liquid): 677.17 ± 1.8 J/K/mol; molar heat capacity at constant pressure ([3]; 340 K, Liquid): 684.76 ± 1.8 J/K/mol; molar heat capacity at constant pressure ([3]; 350 K, Liquid): 693.78 ± 1.8 J/K/mol
CCCCCCCCCCCCC(=O)OC [methyl tridecanoate] | 10.9 ± 0.124 | 279.07 ± 0.16 | 0.53 ± 0.03 | 4.03 ± 0.09 | 19.77 ± 0.24 | 41.39 ± 0.25 | 65.69 ± 0.35 | 89.16 ± 0.44 | 108.8 ± 0.52 | 127.88 ± 0.59 | 144.45 ± 0.66 | 158.95 ± 0.72 | 171.63 ± 0.74 | 183.91 ± 0.77 | 195.21 ± 0.79 | 205.64 ± 0.81 | 215.67 ± 0.83 | 225.37 ± 0.85 | 234.95 ± 0.87 | 244.5 ± 0.89 | molar heat capacity at constant pressure ([3]; 180 K, Crystal): 254.1 ± 0.91 J/K/mol; molar heat capacity at constant pressure ([3]; 190 K, Crystal): 264.04 ± 0.93 J/K/mol; molar heat capacity at constant pressure ([3]; 200 K, Crystal): 274.24 ± 0.95 J/K/mol; molar heat capacity at constant pressure ([3]; 210 K, Crystal): 284.88 ± 0.97 J/K/mol; molar heat capacity at constant pressure ([3]; 220 K, Crystal): 296.06 ± 0.99 J/K/mol; molar heat capacity at constant pressure ([3]; 230 K, Crystal): 307.94 ± 1 J/K/mol; molar heat capacity at constant pressure ([3]; 240 K, Crystal): 321.07 ± 1 J/K/mol; molar heat capacity at constant pressure ([3]; 250 K, Crystal): 336.07 ± 1.1 J/K/mol; molar heat capacity at constant pressure ([3]; 260 K, Crystal): 350.98 ± 1.1 J/K/mol; molar heat capacity at constant pressure ([3]; 270 K, Crystal): 371.61 ± 1.1 J/K/mol; molar heat capacity at constant pressure ([3]; 290 K, Liquid): 463.91 ± 1.3 J/K/mol; molar heat capacity at constant pressure ([3]; 300 K, Liquid): 469.05 ± 1.3 J/K/mol; molar heat capacity at constant pressure ([3]; 310 K, Liquid): 473.89 ± 1.4 J/K/mol; molar heat capacity at constant pressure ([3]; 320 K, Liquid): 479.3 ± 1.4 J/K/mol; molar heat capacity at constant pressure ([3]; 330 K, Liquid): 485.18 ± 1.4 J/K/mol; molar heat capacity at constant pressure ([3]; 340 K, Liquid): 491.82 ± 1.4 J/K/mol
CCCCCCCCCCCCCCCCC(=O)OC [methyl heptadecanoate] | 15.27 ± 0.129 | 303.09 ± 0.16 | 0.56 ± 0.06 | 4.36 ± 0.18 | 23.27 ± 0.56 | 48.82 ± 0.55 | 77.97 ± 0.79 | 106.88 ± 1 | 131.71 ± 1.2 | 154.68 ± 1.4 | 175.53 ± 1.6 | 192.9 ± 1.6 | 208.51 ± 1.6 | 224.09 ± 1.7 | 238.4 ± 1.8 | 252.69 ± 1.8 | 265.74 ± 1.9 | 275.72 ± 1.9 | 284.57 ± 1.9 | 302.09 ± 2 | molar heat capacity at constant pressure ([3]; 180 K, Crystal): 313.76 ± 2.1 J/K/mol; molar heat capacity at constant pressure ([3]; 190 K, Crystal): 326.38 ± 2.1 J/K/mol; molar heat capacity at constant pressure ([3]; 200 K, Crystal): 340.04 ± 2.2 J/K/mol; molar heat capacity at constant pressure ([3]; 210 K, Crystal): 355.66 ± 2.2 J/K/mol; molar heat capacity at constant pressure ([3]; 220 K, Crystal): 367.89 ± 2.3 J/K/mol; molar heat capacity at constant pressure ([3]; 230 K, Crystal): 382.88 ± 2.3 J/K/mol; molar heat capacity at constant pressure ([3]; 240 K, Crystal): 399.49 ± 2.4 J/K/mol; molar heat capacity at constant pressure ([3]; 250 K, Crystal): 418.37 ± 2.5 J/K/mol; molar heat capacity at constant pressure ([3]; 260 K, Crystal): 438.62 ± 2.5 J/K/mol; molar heat capacity at constant pressure ([3]; 270 K, Crystal): 456.93 ± 2.6 J/K/mol; molar heat capacity at constant pressure ([3]; 280 K, Crystal): 480.24 ± 2.7 J/K/mol; molar heat capacity at constant pressure ([3]; 290 K, Crystal): 517.76 ± 2.9 J/K/mol; molar heat capacity at constant pressure ([3]; 310 K, Liquid): 599.17 ± 1.6 J/K/mol; molar heat capacity at constant pressure ([3]; 320 K, Liquid): 605.44 ± 1.6 J/K/mol; molar heat capacity at constant pressure ([3]; 330 K, Liquid): 609.25 ± 1.6 J/K/mol; molar heat capacity at constant pressure ([3]; 340 K, Liquid): 615.4 ± 1.6 J/K/mol; molar heat capacity at constant pressure ([3]; 350 K, Liquid): 622.81 ± 1.6 J/K/mol
